Read-outs that look alike come from different tables or passages of the source.
What was measured:
[1] = molecular target: T1, N-type calcium channels (Homo sapiens, UniProt Q00975); assay: Antagonistic activity on N-type calcium channels (fluorescence dye method, IMR-32 cells); type: cell-based; conditions: for inhibition at 10 µM: 10 μM test compound, read-out: N-type inhibition (inhibition rate (%) at 10 μM); for IC50: 60 mM KCl stimulation, 1 μM Nifedipine, Table 20, read-out: N-type inhibition pIC50 (converted)
T1 construct: Human neuroblastoma cells IMR-32 were obtained from ATCC; host or cells: IMR-32 human neuroblastoma cells, differentiated with dibutyl cAMP and 5-bromodeoxyuridine
Method: (Test Example) Antagonistic Activity on N-Type Calcium Channels (Fluorescence Dye Method):
Human neuroblastoma cells IMR-32 were obtained from ATCC (American Type Culture Collection). The medium used was a phenol red-free Eagle minimum essential medium containing earle's salts (GIBCO) supplemented with 2 mM of L-glutamine (GIBCO), 1 mM of sodium pyruvate (pH 6.5) (GIBCO), antibiotic/antimicotic mixture (GIBCO) and 10% fetal calf serum (Cell Culture Technologies). Three ml of 1×10^5 cells/ml IMR-32 were spread on a 35 mm diameter glass dish (Iwaki Glass Co., Ltd.) which was treated with poly-L-lysin (SIGMA) and collagen (COLLAGEN VITROGEN 100, Collagen Co.). One day after cultivation, 1 mM (final concentration) of dibutyl cAMP and 2.5 μM (final concentration) of 5-bromodeoxyuridine (SIGMA) were added. After the culture for additional 10 to 14 days, the cells were subjected to the activity determination.
The medium for IMR-32 cells thus prepared was replaced with 1 ml of Phenol Red-free Eagle minimum essential medium (GIBCO) containing 2.5 μM fura-2/AM (Dojin Kagaku, Co.) and earle's salts supplement, and the incubation was conducted at 37° C. for 30 minutes. Then the medium was replaced with a recording medium (20 mM of HEPES-KOH, 115 mM of NaCl, 5.4 mM of KCl, 0.8 mM of MgCl2, 1.8 mM of CaCl2 and 13.8 mM of D-glucose). Antagonistic activity on N-type calcium channels was determined and analyzed using a fluorescence microscope (Nikon Corporation) and an image analysis device ARGUS 50 (Hamamatsu Photonics). In particular, a recording medium (20 mM of HEPES-KOH, 115 mM of NaCl, 5.4 mM of KCl, 0.8 mM of MgCl2, 1.8 mM of CaCl2 and 13.8 mM of D-glucose) containing 1 μM of Nifedipine was given to the cells by reflux by a Y-tube method for 2 minutes. Then a stimulating agent containing 60 mM of potassium chloride was rapidly given by the Y-tube method. The calcium concentration change in the cells was examined in terms of N-type calcium channel activity. Stimulating agents containing 60 mM of potassium chloride and 0.1, 1 or 10 μM of test compound were successively and rapidly given to the same cells by the Y-tube method to determine the change in calcium concentration in the cells on this occasion. Antagonistic activity on N-type calcium channel was thus calculated from the inhibition rates.
The same procedure as that of the above-described tests of the N-type calcium channel antagonistic activity of the compounds obtained in the Examples was repeated except for the following changes: stimulating agents containing 60 mM of potassium chloride and 0.1, 1 or 10 μM of test compound were successively and rapidly given by the Y-tube method. A change in calcium concentration in the cells was determined.

[2] = molecular target: T2, L-type calcium channels (Rattus norvegicus, UniProt P22002); assay: Antagonistic activity on L-type calcium channels (relaxation of KCl-induced contraction of isolated rat thoracic aorta); conditions: isolated Wistar rat thoracic aorta; for L-type inhibition pIC50: Table 21
T2 construct: The thoracic aorta isolated from a Wistar rat was cut to obtain ring-shaped samples; from tissue; host or cells: isolated Wistar rat thoracic aorta rings, endothelium removed
Method: (Test Example) Antagonistic Activity on L-Type Calcium Channels:
The activity of the dihydropyrimidine derivatives of the present invention to inhibit L-type calcium channels was determined by the following method in which the relaxation reaction on the KCl-induced contraction of isolated rat thoracic aorta was employed.
1) Method of Preparation of Rat Thoracic Aorta:
The thoracic aorta isolated from a Wistar rat was cut to obtain ring-shaped samples having a width of about 3 mm. The endothelial cells of the samples were mechanically removed. The samples were then suspended in a strain gage in Tyrode's solution (158.3 mM of NaCl, 4.0 mM of KCl, 1.05 mM of MgCl2, 0.42 mM of NaH2PO4, 10 mM of NaHCO, 2 mM of CaCl2 and 5 mM of glucose) in which a gaseous mixture of O2 (95%) and CO2 (5%) was introduced. A static tension of 2 g was applied hereto. The tension of the blood vessel was amplified with a transducer and a tension amplifier (EF-601G; Nihon Koden Corporation) and recorded with a multi-pen recorder (Rikadenki Kogyo Co., Ltd.). The experiments were conducted at 37° C.
2) Measurment of Relaxation Response Against KCl-Induced Contraction:
After the tension had been stabilized, the solution in the sample tank was replaced with High K^+ Tyrode's solution (112.3 mM of NaCl, 50 mM of KCl, 1.05 mM of MgCl2, 0.42 mM of NaH2PO4, 10 mM of NaHCO3, 2 mM of CaCl2 and 5 mM of glucose) to conduct the contraction reaction. Thirty minutes after, the solution in the sample tank was replaced with the normal Tyrode's solution. The solution in the sample tank was again replaced with the High K^+ Tyrode's solution and the contraction reaction was observed. After attaining the maximum contraction reaction, the test compound was cumulatively added at intervals of […] to attain concentrations of 10^−9, 10^−8, 10^−7 and 10^−6 M. The inhibitory rate of the test compound on the maximum contraction reaction was employed as the index of the inhibition activity on L-type calcium channels.

[3] = test system: SD rats; assay: Analgesic action in the formalin test; type: in vivo, rat; conditions: 3 mg/kg p.o. 3 hours before formalin injection, counted for 60 minutes, average±standard error, control group 116 ± 8
Method: (Test Example) Determination of Analgesic Action (Analgesic Action in the Formalin Test) 1) Preparation of Solution of a Test Compound and its Administration
The compound was weighed and ground in a mortar. While grinding the powder, 0.5% tragacanth solution was added thereto so that a suspension was prepared to have a concentration of 0.6 mg/ml.
Three hours before the formalin injection, the compound suspension was orally administered to SD rats at a volume of 5 ml/kg (dosage; 3 mg/kg, p.o.). In the control group, 0.5% tragacanth solution was orally administered to SD rats at a volume of 5 ml/kg 3 hours before formalin injection.
2) Determination of Analgesic Action in the Formalin Test
The SD rats to which the compound was administered were introduced to a capsule. They were settled under halothane (2 to 4% in 3 L/min of oxygen gas flow rate) and 100 μl of 5% formalin solution was injected subcutaneously to their dorsal surface of left legs. After injection, determination was started when the rats came out from the anesthetic state (based on recovery of righting reflex). The number of flinching under the influence of formalin injection was counted for 60 minutes (Reference: J. Neurosci. 14: 4882-4890 (1994)). The results are shown as “average±standard error” in Table 22.

[4] = Table 21, read-out: L-type inhibition pIC50 (converted)
[5] = Table 20, read-out: L-type inhibition pIC50 (converted)

T1 sequence (Q00975 whole entry): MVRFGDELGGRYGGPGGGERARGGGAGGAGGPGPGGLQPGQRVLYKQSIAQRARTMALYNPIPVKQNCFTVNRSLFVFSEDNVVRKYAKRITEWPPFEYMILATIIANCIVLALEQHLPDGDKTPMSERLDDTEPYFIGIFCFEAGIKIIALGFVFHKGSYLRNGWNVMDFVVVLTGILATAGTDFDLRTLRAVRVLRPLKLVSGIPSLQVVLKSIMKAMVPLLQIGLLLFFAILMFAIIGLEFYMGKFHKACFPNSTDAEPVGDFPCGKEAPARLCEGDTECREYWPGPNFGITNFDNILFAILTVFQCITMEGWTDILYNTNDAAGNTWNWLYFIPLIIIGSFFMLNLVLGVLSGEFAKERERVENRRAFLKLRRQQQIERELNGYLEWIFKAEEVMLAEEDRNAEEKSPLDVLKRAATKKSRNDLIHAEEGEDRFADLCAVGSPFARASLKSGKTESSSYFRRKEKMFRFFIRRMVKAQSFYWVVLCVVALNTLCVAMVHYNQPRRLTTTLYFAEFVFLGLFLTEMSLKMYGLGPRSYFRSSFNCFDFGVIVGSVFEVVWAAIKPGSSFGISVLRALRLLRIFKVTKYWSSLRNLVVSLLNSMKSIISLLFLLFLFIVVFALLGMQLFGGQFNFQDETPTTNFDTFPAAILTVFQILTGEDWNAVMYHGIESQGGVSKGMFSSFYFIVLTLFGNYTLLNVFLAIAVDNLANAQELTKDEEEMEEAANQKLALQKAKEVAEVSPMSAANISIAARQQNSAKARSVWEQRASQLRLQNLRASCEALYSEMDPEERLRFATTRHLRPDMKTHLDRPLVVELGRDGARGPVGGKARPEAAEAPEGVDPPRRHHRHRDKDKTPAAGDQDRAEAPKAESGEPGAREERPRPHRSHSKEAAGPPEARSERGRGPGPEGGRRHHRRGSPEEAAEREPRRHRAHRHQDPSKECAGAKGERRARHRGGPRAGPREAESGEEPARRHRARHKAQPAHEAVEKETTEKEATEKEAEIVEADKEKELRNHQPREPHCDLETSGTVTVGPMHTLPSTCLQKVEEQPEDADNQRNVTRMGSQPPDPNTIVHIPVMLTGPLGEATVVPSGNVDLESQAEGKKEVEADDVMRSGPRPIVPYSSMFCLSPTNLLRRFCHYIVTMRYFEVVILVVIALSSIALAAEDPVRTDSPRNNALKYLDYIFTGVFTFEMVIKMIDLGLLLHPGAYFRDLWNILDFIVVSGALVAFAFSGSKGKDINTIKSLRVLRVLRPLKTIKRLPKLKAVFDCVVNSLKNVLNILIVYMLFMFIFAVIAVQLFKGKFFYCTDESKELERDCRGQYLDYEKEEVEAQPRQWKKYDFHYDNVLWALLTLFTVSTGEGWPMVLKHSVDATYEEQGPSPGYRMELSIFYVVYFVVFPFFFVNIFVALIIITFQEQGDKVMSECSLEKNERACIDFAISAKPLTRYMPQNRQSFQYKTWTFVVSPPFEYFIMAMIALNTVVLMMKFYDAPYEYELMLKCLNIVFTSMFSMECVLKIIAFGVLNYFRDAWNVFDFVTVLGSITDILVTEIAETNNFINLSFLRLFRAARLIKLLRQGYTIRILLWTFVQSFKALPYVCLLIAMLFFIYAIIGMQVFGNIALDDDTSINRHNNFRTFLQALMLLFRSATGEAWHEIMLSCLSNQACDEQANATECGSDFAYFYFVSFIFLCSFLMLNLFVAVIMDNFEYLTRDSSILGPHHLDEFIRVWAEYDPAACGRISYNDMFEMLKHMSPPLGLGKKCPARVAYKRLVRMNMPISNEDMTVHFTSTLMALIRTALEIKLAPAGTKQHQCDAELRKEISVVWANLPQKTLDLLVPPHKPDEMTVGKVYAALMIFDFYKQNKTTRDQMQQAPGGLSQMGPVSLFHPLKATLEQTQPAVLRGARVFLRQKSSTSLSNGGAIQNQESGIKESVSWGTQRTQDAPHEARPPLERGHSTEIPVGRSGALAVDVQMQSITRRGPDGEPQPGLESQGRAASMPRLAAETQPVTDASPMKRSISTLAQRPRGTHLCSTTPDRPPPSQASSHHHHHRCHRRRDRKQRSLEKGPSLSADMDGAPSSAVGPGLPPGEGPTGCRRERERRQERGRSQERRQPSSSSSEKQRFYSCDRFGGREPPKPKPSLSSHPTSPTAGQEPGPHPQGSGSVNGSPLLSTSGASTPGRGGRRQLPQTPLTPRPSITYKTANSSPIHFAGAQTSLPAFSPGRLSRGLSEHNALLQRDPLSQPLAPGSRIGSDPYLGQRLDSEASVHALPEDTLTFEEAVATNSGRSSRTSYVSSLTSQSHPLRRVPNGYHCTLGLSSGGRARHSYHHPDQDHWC
T1 sequence (Q02641 whole entry partner): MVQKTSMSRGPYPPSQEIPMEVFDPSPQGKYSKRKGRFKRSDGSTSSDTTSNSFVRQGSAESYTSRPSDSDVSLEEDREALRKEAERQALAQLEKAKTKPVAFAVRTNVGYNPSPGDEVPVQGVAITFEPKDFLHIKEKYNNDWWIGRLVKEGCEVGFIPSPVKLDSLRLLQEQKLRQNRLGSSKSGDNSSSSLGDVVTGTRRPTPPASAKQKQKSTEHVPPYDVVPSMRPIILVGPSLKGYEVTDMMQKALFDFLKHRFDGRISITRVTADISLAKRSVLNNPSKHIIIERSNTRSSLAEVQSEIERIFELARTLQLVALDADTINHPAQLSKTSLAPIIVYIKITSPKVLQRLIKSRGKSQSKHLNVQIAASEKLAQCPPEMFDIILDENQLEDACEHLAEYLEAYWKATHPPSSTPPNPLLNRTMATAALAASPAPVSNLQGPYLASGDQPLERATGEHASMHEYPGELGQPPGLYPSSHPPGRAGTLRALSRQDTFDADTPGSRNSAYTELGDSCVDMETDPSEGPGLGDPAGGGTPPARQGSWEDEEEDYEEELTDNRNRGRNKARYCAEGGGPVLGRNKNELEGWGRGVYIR
T1 sequence (P54289 25-956 partner limits assumed): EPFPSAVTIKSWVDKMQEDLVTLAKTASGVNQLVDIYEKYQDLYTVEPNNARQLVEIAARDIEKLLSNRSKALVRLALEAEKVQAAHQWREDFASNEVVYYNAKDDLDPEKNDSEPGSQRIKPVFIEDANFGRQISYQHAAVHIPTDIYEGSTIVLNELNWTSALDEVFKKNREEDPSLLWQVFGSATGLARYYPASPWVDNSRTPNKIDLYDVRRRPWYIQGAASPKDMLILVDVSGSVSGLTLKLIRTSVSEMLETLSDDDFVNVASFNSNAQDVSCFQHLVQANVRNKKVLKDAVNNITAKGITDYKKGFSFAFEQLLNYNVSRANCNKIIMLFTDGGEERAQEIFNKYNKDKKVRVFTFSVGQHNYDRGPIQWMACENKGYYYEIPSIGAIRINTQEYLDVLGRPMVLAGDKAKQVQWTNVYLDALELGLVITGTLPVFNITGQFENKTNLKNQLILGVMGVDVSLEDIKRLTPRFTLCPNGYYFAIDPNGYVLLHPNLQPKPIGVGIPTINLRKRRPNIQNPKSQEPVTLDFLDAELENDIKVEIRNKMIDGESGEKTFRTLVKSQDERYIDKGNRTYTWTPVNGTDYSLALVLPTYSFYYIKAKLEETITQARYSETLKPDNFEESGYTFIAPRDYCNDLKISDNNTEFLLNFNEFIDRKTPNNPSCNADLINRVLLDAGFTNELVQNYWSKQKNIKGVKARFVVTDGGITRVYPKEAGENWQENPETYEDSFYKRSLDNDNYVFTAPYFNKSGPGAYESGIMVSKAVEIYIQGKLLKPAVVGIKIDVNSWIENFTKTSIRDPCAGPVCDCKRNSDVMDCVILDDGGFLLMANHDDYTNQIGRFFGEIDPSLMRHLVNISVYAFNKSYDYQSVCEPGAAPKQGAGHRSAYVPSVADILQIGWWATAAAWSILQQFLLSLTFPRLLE
T1 sequence (P54289 957-1103 partner limits assumed): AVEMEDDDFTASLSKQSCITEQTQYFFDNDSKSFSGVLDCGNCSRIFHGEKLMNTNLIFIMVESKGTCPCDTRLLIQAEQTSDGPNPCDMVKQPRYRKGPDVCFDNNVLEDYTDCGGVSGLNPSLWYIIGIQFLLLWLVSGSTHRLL

SMILES | inhibition at 10 µM [1] | IC50 [2, 4] | Flinching (number) [3] | IC50 [1] | IC50 [2, 5] | L-type inhibition pIC50 [2]
CSc1nc(C)c(C(=O)NCCCc2ccccc2)c(-c2c(Cl)cccc2Cl)n1 [Example 110, 4-(2,6-dichlorophenyl)-6-methyl-2-(methylthio)-N-(3-phenylpropyl)-5-pyrimidinecarboxamide] | 77% | 2510 nM |  |  |  | 
Cc1nc(C)c(C(=O)N2CCN(C)CC2)c(-c2cccc(Cl)c2)c1C(=O)OCCC(c1ccccc1)c1ccccc1 [Example 125, 4-(3-chlorophenyl)-2,6-dimethyl-5-(4-methylpiperazine-1-carbonyl)nicotinic acid (3,3-diphenylpropyl) ester] | 70% | 1260 nM | 62 ± 25 number |  |  | 
CCc1nc(C)c(C(=O)NCCCc2ccccc2)c(-c2cc(Cl)cc(Cl)c2)n1 [Example 103, 2-ethyl-4-(3,5-dichlorophenyl)-6-methyl-N-(3-phenylpropyl)-5-pyrimidinecarboxamide] | 74% | 3980 nM |  |  |  | 
Cc1nc(C)c(C(=O)N2CCNCC2)c(-c2cccc(Cl)c2)c1C(=O)OCCC(c1ccccc1)c1ccccc1 [Example 122, 4-(3-chlorophenyl)-2,6-dimethyl-5-(piperazine-1-carbonyl)nicotinic acid (3,3-diphenylpropyl) ester] | 56% |  | 61 ± 16 number | 1580 nM | 1000 nM | 6.0
CSc1nc(C)c(C(=O)NC/C=C/c2ccccc2)c(-c2cccc(Cl)c2)n1 [Example 1, 4-(3-chlorophenyl)-6-methyl-2-(methylthio)-N-(3-phenyl-2-propen-1-yl)-5-pyrimidinecarboxamide] | 52% |  |  | 1580 nM | 2510 nM | 5.6
CSc1nc(C)c(C(=O)NCCCc2ccccc2)c(-c2cccc(Cl)c2)n1 [Example 16, 4-(3-chlorophenyl)-6-methyl-2-(methylthio)-N-(3-phenylpropyl)-5-pyrimidinecarboxamide] | 58% |  |  | 2000 nM | 3160 nM | 5.5
CSc1nc(C)c(C(=O)NCCCc2ccccc2)c(-c2ccc(C)cc2C)n1 [Example 93, 4-(2,4-dimethylphenyl)-6-methyl-2-(methylthio)-N-(3-phenylpropyl)-5-pyrimidinecarboxamide] | 63% | 5010 nM | 39 ± 11 number |  |  | 

Reference: patent US7288544B2, “Pyrimidine compounds useful as N-type calcium channel antagonists” (Ajinomoto Co., Inc., priority 2000, dated 2007)
